The results in this text go back to US8729132B2, “Agomelatine hydrobromide hydrate and preparation thereof” (Les Laboratoires Servier, priority 2010, dated 2014).

Structures can show the parent of a compound that is named as a salt.

Type in all cases: physicochemical
Data set [1] can be described thus: Water solubility by HPLC, external standard method. On the procedure:
Using external standard method, the product of example 1 was tested with HPLC, compared with agomelatine crystalline form II.

Data set [2] is described as follows: Stability test per Chinese Pharmacopoeia (affecting factors, accelerated, long-term). The conditions noted are these: for Water: initial 5.25%; for Br: initial 23.21%; for Purity of agomelatine hydrobromide hydrate: initial value 99.89%. On the procedure:
The method for stability test as described in Chinese Pharmacopoeia was used in this test. • 1) Affecting factors test (in open container for 10 days): high temperature (60° C.), photostability under strong light ([…]), high humidity (92.5% RH at 25° C.) • 2) Accelerated test (in closed container for 6 months): at 40° C., humidity: 75% RH • 3) Long-term test (in closed container for 9 months): at 25° C., humidity: 60% RH

Data set [3] in a line: Stability test, incubator at 40° C. for 30 days, HPLC. As to the method:
Chromatographic conditions: C18 column; mobile phase: 10 mmol/L phosphate buffer (adjusted to pH 7.0 with NaOH): acetonitrile=2:7 (v/v); column temperature: 40° C.; detection wavelength: 220 nm; internal standard method was used on the products of examples 1 and 2.
Solutions of the products at 1 mg/mL were prepared with the mobile phase. 10 μL of each solution was injected into the liquid chromatograph system and chromatograms were recorded. The results of the purity are shown in examples 1 and 2.
The product of example 1 was placed in an incubator at 40° C. for 30 days to determine its stability with HPLC.

[4] abbreviates: Accelerated test: closed container, 6 months, 40° C., 75% RH.
The mark [5] stands for this setting: Affecting factors: high humidity (92.5% RH at 25° C.), open container, 10 days.
The mark [6] stands for this setting: Affecting factors: high temperature (60° C.), open container, 10 days.
Where [7] appears, read: Affecting factors: strong light (45001x), open container, 10 days.
Where [8] appears, read: Long-term test: closed container, 9 months, 25° C., 60% RH.

Take `COc1ccc2cccc(CCNC(C)=O)c2c1` [AG crystalline form II, N-[2-(7-methoxy-1-naphthyl)ethyl]-acetamide, reference compound]: the figures for the Agomelatine content in data set [1] (In 0.1N HCl), in data set [1] (In pH 7.0 buffer) and in data set [1] (In water) were 0.30 mg/mL, 0.25 mg/mL and 0.26 mg/mL, respectively.
As to `COc1ccc2cccc(CCNC(C)=O)c2c1` [AG•HBr•H2O, agomelatine hydrobromide hydrate], the Agomelatine content was determined as 0.37 mg/mL in data set [1] (In 0.1N HCl, hydrobromide hydrate); 0.31 mg/mL in data set [1] (In pH 7.0 buffer, hydrobromide hydrate); 0.33 mg/mL in data set [1] (In water, hydrobromide hydrate). The “solubility compared with agomelatine per se” value in data set [1] (in water, 0.1N HCl or pH 7.0 buffer) is “better solubility than agomelatine per se”. For the same compound, the Water in data set [2] (setting [4]) came out at 5.41%; in data set [2] (setting [5]), 5.45%; in data set [2] (setting [6]) it was 5.18%; in data set [2] (setting [7]) it was 5.22%; in data set [2] (setting [8]) it was 5.18%. Besides, the Br in data set [2] (setting [4]) turned out to be 23.07%; in data set [2] (setting [5]), 23.11%; in data set [2] (setting [6]) it was 21.95%; in data set [2] (setting [7]) it was 22.61%; in data set [2] (setting [8]), 22.52%. Besides, the “Purity of agomelatine hydrobromide hydrate” value in data set [2] (setting [4]) was 99.83%; in data set [2] (setting [5]) it was 99.83%; in data set [2] (setting [6]), 99.87%; in data set [2] (setting [7]) it was 99.71%; in data set [2] (setting [8]) it was 99.84%. For the same compound, in data set [2] (affecting factors, accelerated and long-term tests), the “stability (overall conclusion)” value is recorded as “stable”. The “stability with HPLC (purity)” value in data set [3] (Day 0) is 99.7%; in data set [3] (Day 5) it was 99.7%; in data set [3] (Day 10) it was 99.6%; in data set [3] (Day 30) it was 99.6%.
